Reference: US7098304B1, “Assay for the diagnosis of schizophrenia based on a new peptide” (Yeda Research and Development Co. Ltd., priority 1998, dated 2006)

Legend:
[1] = tested on: SDAs as compared to NSDAs; test: Binding activity of peptides line-blotted onto PVDF to SDAs as compared to NSDAs; set-up: species or system human; key to Activity: showed a substantially higher binding activity to SDAs as compared to their binding to NSDAs (indicated as YES in the table); No: showed no significant differences in their binding to samples from schizophrenic and non-schizophrenic individuals (designed as no in the table); conditions: for Activity: binding to SDAs versus NSDAs
Description: (§1) 1. Platelets and Anti-Platelet Autoantibodies Venous blood (20 ml) was drawn with heparin as anticoagulant from patients and control subjects. Platelet rich plasma (PRP) was obtained by centrifugation (100 g for 20 mins) at room temperature. Plasma free platelets were obtained by washing them three times with phosphate buffered saline (PBS) supplemented with 10 ml mM EDTA as anticoagulant (4000 g; 15 mins; 4° C.). For the isolation of anti-platelet antibodies, the platelets were incubated with 0.1 M glycine/10 mM EDTA, pH 2.8, for 10 min. at room temperature and then centrifuged (4000 g; 15 min; 4° C.). The supernatant containing the anti-platelet antibodies, was neutralized with saturated Na2PO4 solution and stored at −20 until use. 2. Preparative Isoelectric Focusing
(§2) The fractions were analyzed for immuno-reactivity by polyacrylamide (10%) gel electrophoresis, blotting the proteins onto PVDF membranes and probing the membrane with 1 ml auto-antibodies in 50 ml incubation buffer. Anti-human Fc conjugated to horseradish peroxidase (goat) from SIGMA (1:500 dilution) and Fast-DAB™ (SIGMA) or 4-Chloro-naphthol (SIGMA) were used as color reagent in order to detect bound human anti-platelet antibodies.
(§3) Various peptides were synthesized on Abimed 522 at a 10 micromol scale by Eurosequence b.v. Peptides were routinely dissolved in 1 ml water/DMF/DMSO (1:1:1;v/v/v). Peptides were line-blotted onto PVDF membranes and tested for immuno-reactivity as described above.
Based on the sequence of the epitope identified in the digested proteins, a number of peptides were synthesized by the method described in 1.8 above. The synthesized peptides were then evaluated for their binding activity to SDAs as compared to NSDAs as described above.

[2] = tested on: NSDAs (non-schizophrenic derived antibodies); test: Reactivity of proteins to NSDAs (platelet autoantibodies from control non-schizophrenic individuals), blot with anti-human Fc-HRP; type: binding; conditions: number of NSDA samples that reacted positively with the enzyme, of 8 controls
Description: as §1, §2
(§4) Every fifth fraction (0.1 ml) was dot blotted onto PVDF membranes using the DotBlot device (96 wells) from BioRad. Immuno-reactive fractions were then detected as described above (1.3)
(§5) The binding activity of the above two enzymes was then tested by reacting them with SDAs (prepared from samples obtained from schizophrenic patients) and to NSDA (prepared from control non-schizophrenic individuals).

[3] = tested on: SDAs (schizophrenic derived antibodies); test: Reactivity of proteins to SDAs (platelet autoantibodies from schizophrenic patients), blot with anti-human Fc-HRP; type: binding; conditions: number of SDA samples that reacted positively with the enzyme, of 8 patients
Description: as §1, §2, §4, §5

[4] = tested on: NSDA in plasma samples from non-schizophrenic individuals; test: Binding of peptide to plasma samples from non-schizophrenic individuals; set-up: species or system human; conditions: plasma samples of fifteen non-schizophrenic individuals, FIG. 2B
Description: as §2, §3
(§6) The capability of Peptide 14 (SEQ ID NO: 3) to bind SDA in plasma samples obtained from schizophrenic patients was then tested. […] Peptide 14 (SEQ ID NO: 10) was used as a negative control.

[5] = tested on: PAAs obtained from non-schizophrenic individuals; test: Binding of peptide to isolated PAAs from non-schizophrenic individuals; set-up: species or system human; conditions: isolated PAAs from eight different non-schizophrenic individuals, FIG. 1B
Description: as §1, §2
(§7) Various peptides were synthesized on Abimed 522 at a 10 micromol scale by Eurosequence b.v. Peptides were routinely dissolved in 1 ml water/DMF/DMSO (1:1:1;v/v/v). […]

[6] = tested on: PAAs obtained from schizophrenic patients (SDA); test: Binding of peptide to isolated PAAs from schizophrenic patients; set-up: species or system human
Description: as §1, §2, §7

[7] = tested on: SDA in plasma samples obtained from schizophrenic patients; test: Binding of peptide to plasma samples from schizophrenic patients; set-up: species or system human; conditions: plasma samples of five schizophrenic patients, FIG. 2A
Description: as §2, §3, §6

**Q.** How did the Activity [1] turn out when “2 (SGETEDTFIADLVVGLCTGQIKTGAPCR; being the immunologically active epitope) [compound 2]” was run?
**A.** YES

**Q.** “3 (LVVGLCTCQIKTGPAC; peptide capable of binding antibodies that are found in elevated levels in body fluids of schizophrenic patients.) [compound 3]” was tested. Which Activity [1] did it give?
**A.** YES

**Q.** For “4 (IADLVVGLCTGQIKTGAPCR; peptide capable of binding antibodies that are found in elevated levels in body fluids of schizophrenic patients.) [compound 4]”, which Activity [1] is on record?
**A.** YES

**Q.** For “5 (ADLVVGLCTGQIKTGAPCR; peptide capable of binding antibodies that are found in elevated levels in body fluids of schizophrenic patients.) [compound 5]”, which Activity [1] is on record?
**A.** YES

**Q.** “6 (DLVVGLCTGQIKTGAPCR; peptide capable of binding antibodies that are found in elevated levels in body fluids of schizophrenic patients.) [compound 6]” was tested. Which Activity [1] did it give?
**A.** YES

**Q.** How did the Activity [1] turn out when “7 (LVVGLCTGQIKTGAPCR; peptide capable of binding antibodies that are found in elevated levels in body fluids of schizophrenic patients.) [compound 7]” was run?
**A.** YES

**Q.** For “8 (LVVGLCTGQIKTGPACR; peptide capable of binding antibodies that are found in elevated levels in body fluids of schizophrenic patients.) [compound 8]”, which Activity [1] is on record?
**A.** YES

**Q.** With “9 (LVVGLCTPQIKTGPACR; peptide capable of binding antibodies that are found in elevated levels in body fluids of schizophrenic patients.) [compound 9]” as the substance, how does the Activity [1] read?
**A.** YES

**Q.** With “10 (SGETEDTFIADLVVGLCTGQ; peptide capable of binding antibodies that are found in elevated levels in body fluids of schizophrenic patients.) [compound 10]” as the substance, how does the Activity [1] read?
**A.** No

**Q.** How did the Activity [1] turn out when “11 (VVGLCTGQIKTGAPCR; peptide capable of binding antibodies that are found in elevated levels in body fluids of schizophrenic patients.) [compound 11]” was run?
**A.** No

**Q.** For “12 (CTGQIKTGAPCR; peptide capable of binding antibodies that are found in elevated levels in body fluids of schizophrenic patients.) [compound 12]”, which Activity [1] is on record?
**A.** No

**Q.** How did the Activity [1] turn out when “13 (LVVGLCTGQIKTGAPC; peptide capable of binding antibodies that are found in elevated levels in body fluids of schizophrenic patients.) [compound 13]” was run?
**A.** No

**Q.** For “15 (LVVGLCTGQIKTGPAC; peptide capable of binding antibodies that are found in elevated levels in body fluids of schizophrenic patients.) [compound 15]”, which Activity [1] is on record?
**A.** No

**Q.** For “G-3-P-Dehydrogenase from chicken: glyceraldehyde-3-phosphate dehydrogenase (G3PD) enzyme from chicken”, which “Controls (n = 8) Positive” value [2] is on record?
**A.** 2/8

**Q.** And the “Patients (n = 8) Positive” value [3]?
**A.** 7/8

**Q.** How did the “Controls (n = 8) Positive” value [2] turn out when “G-3-P-Dehydrogenase from human: glyceraldehyde-3-phosphate dehydrogenase (G3PD) enzyme from human” was run?
**A.** 1/8

**Q.** And the “Patients (n = 8) Positive” value [3]?
**A.** 7/8

**Q.** For “G-3-P-Dehydrogenase from pig: glyceraldehyde-3-phosphate dehydrogenase (G3PD) enzyme from pig”, which “Controls (n = 8) Positive” value [2] is on record?
**A.** 1/8

**Q.** And the “Patients (n = 8) Positive” value [3]?
**A.** 8/8

**Q.** Which “ranking of binding to antibodies found in high levels in schizophrenic patients” value ([1]; among the synthesized peptides) does the source give for “LVVGLCTCQIKTGPAC (peptide capable of binding antibodies that are found in elevated levels in body fluids of schizophrenic patients.) [SEQ ID NO: 3]” here?
**A.** most capable of binding

**Q.** What about the Activity [1] of the same substance?
**A.** No

**Q.** What about the “plasma samples of non-schizophrenic individuals whose NSDA was not bound” value [4] of the same substance?
**A.** fourteen out of fifteen

**Q.** And the “binding to PAAs from non-schizophrenic individuals” value [5]?
**A.** did not bind

**Q.** And the “PAAs from schizophrenic patients positively bound” value ([6]; isolated PAAs from eight different schizophrenic patients, FIG. 1A)?
**A.** seven out of eight

**Q.** What about the “binding activity to SDA, dimer form versus non-dimer form” value ([6]; ring via two cysteins and dimer via free cystein after overnight in water/DMF/DMSO) of the same substance?
**A.** the dimer form of the peptide was much more active in binding SDAs than the non-dimer form

**Q.** And the “SDA in plasma of schizophrenic patients positively bound” value [7]?
**A.** four out of five

**Q.** For “SGETEDTFIADLVVGLCTGQIKTGAPCR (being the immunologically active epitope) [SEQ ID NO: 2]”, which “immunological activity of peptide from enzymatic digest of Enolase” value ([1]; binding SDAs to a higher extent than NSDAs, amino acids 372-399) is on record?
**A.** immunologically active
